Experimental data from the supplement of paper PMC8149375.

How the values were obtained:
Conditions in all cases: treatment: drug alone; 5 days
[1] = system: TK-10; experiment: GI50, drug alone; higher = less potent
Description: (§1)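 Primary HTS: 8 RCC cell lines treated with 8 doses (up to 10 uM) of each library drug alone for 5 days; viability read by CellTiter-Glo and normalised to DMSO. GI50 was fitted with XLfit (4-parameter), AUC is the area under the dose-response curve, and minimum viability is the lowest fraction of DMSO viability across doses.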

[2] = system: ACHN; experiment: GI50, drug alone; higher = less potent
Description: as §1

[3] = system: UO-31; experiment: GI50, drug alone; higher = less potent
Description: as §1

[4] = system: 769-P; experiment: GI50, drug alone; higher = less potent
Description: as §1

[5] = system: A498; experiment: GI50, drug alone; higher = less potent
Description: as §1

[6] = system: CAKI-1; experiment: GI50, drug alone; higher = less potent
Description: as §1

[7] = system: 786-O; experiment: GI50, drug alone; higher = less potent
Description: as §1

[8] = system: SN12C; experiment: GI50, drug alone; higher = less potent
Description: as §1

[9] = system: TK-10; experiment: AUC of dose-response viability curve, drug alone (arbitrary (AUC of normalised viability)); higher = less growth inhibition
Description: as §1

[10] = system: ACHN; experiment: as above
Description: as §1

[11] = system: UO-31; experiment: as above
Description: as §1

[12] = system: 769-P; experiment: as above
Description: as §1

[13] = system: A498; experiment: as above
Description: as §1

[14] = system: CAKI-1; experiment: as above
Description: as §1

[15] = system: 786-O; experiment: as above
Description: as §1

[16] = system: SN12C; experiment: as above
Description: as §1

[17] = system: TK-10; experiment: minimum viability across doses, drug alone, relative to DMSO (fraction); higher = less growth inhibition
Description: as §1

[18] = system: ACHN; experiment: as above
Description: as §1

[19] = system: UO-31; experiment: as above
Description: as §1

[20] = system: 769-P; experiment: as above
Description: as §1

[21] = system: A498; experiment: as above
Description: as §1

[22] = system: CAKI-1; experiment: as above
Description: as §1

[23] = system: 786-O; experiment: as above
Description: as §1

[24] = system: SN12C; experiment: as above
Description: as §1

Structure (SMILES)	GI50, drug alone [2] [µM]	GI50, drug alone [7] [µM]	GI50, drug alone [1] [µM]	GI50, drug alone [3] [µM]	GI50, drug alone [4] [µM]	GI50, drug alone [5] [µM]	GI50, drug alone [6] [µM]	GI50, drug alone [8] [µM]	AUC of dose-response viability curve [9]	AUC of dose-response viability curve [10]	AUC of dose-response viability curve [11]	AUC of dose-response viability curve [12]	AUC of dose-response viability curve [13]	AUC of dose-response viability curve [14]	AUC of dose-response viability curve [15]	AUC of dose-response viability curve [16]	minimum viability across doses [17]	minimum viability across doses [18]	minimum viability across doses [19]	minimum viability across doses [20]	minimum viability across doses [21]	minimum viability across doses [22]	minimum viability across doses [23]	minimum viability across doses [24]
Cc1ccc(NC(=O)c2cccc(N(C)C)c2)cc1NC(=O)c1ccc(O)cc1	> 10	> 10	> 10	> 10	> 10	> 10	> 10	> 10	2.59	3.32	4.13	3.39	4.56	3.64	2.5	3.31	0.677	0.816	0.895	0.92	0.864	0.984	0.535	0.845
CNC(=O)Nc1ccc(-c2nc(N3CC4CCC(C3)O4)c3cnn(C4CCC5(CC4)OCCO5)c3n2)cc1	0.0587	0.0414	0.0812	0.0343	0.122	0.23	0.0567	0.0971	1.52	1.4	1.01	1.66	2.28	1.31	1.25	1.64	0.0905	0.0487	0.00242	0.101	0.09	0.042	0.00279	0.126
Nc1ccc(C(=O)Nc2cccc(-c3nc(N4CCOCC4)c4oc5ncccc5c4n3)c2)cn1	1.87	1.11	1.7	8.08	3.14	> 10	1.19	8.23	2.64	2.63	5.57	3.04	4.39	2.63	2.4	3	0.11	0.207	0.0163	0.0884	0.527	0.153	0.00412	0.46
C[C@@H]1CCN(C(=O)CC#N)C[C@@H]1N(C)c1ncnc2[nH]ccc12	> 10	> 10	> 10	> 10	> 10	> 10	> 10	> 10	3.14	3.3	4.6	3.63	3.8	3.66	3.54	3.63	0.806	0.893	0.876	0.988	0.909	0.98	0.804	0.935
COc1cc2c(Nc3ccc(NC(=O)c4ccccc4)cc3)ncnc2cc1OCCCN1CCOCC1	3.42	2	4.2	9.01	5.72	> 10	2.63	> 10	2.86	2.57	4.2	3.12	4.49	3.03	2.52	2.89	0.243	0.152	0.175	0.24	0.722	0.108	0.00931	0.537
C[C@@H](N)[C@H]1CC[C@H](C(=O)Nc2ccncc2)CC1.Cl.Cl	> 10	> 10	> 10	> 10	> 10	> 10	> 10	> 10	3.46	3.73	4.59	3.37	3.58	3.45	3.36	3.55	0.887	0.908	0.96	0.895	0.87	0.859	0.802	0.909
CC1CCN(C(=O)CC#N)C[C@@H]1N(C)c1ncnc2[nH]ccc12.O=C(O)CC(O)(CC(=O)O)C(=O)O (stereo in doubt)	> 10	> 10	> 10	> 10	> 10	> 10	> 10	> 10	3.16	3.18	4.05	3.66	3.54	3.73	2.72	3.23	0.797	0.771	0.897	0.938	0.817	0.918	0.614	0.854
O=C1NC(=O)C(=Cc2ccc(-c3ccc(F)cc3)o2)S1 (stereo in doubt)	> 10	> 10	> 10	7.95	> 10	> 10	> 10	> 10	3.07	3.47	3.29	3.33	3.71	3.34	2.4	3.23	0.81	0.871	0.311	0.859	0.852	0.882	0.566	0.82
Cn1cnc(N)c2ncnc1-2 [3-Methyladenine]	> 10	> 10	> 10	> 10	> 10	> 10	> 10	> 10	2.77	3.25	4.92	3.6	3.89	3.74	2.67	3.65	0.696	0.879	1.12	0.947	1.04	0.991	0.618	0.961

The next lines start with results.

GI50, drug alone [2] [µM]	GI50, drug alone [7] [µM]	Structure (SMILES)	GI50, drug alone [1] [µM]	GI50, drug alone [3] [µM]	GI50, drug alone [4] [µM]	GI50, drug alone [5] [µM]	GI50, drug alone [6] [µM]	GI50, drug alone [8] [µM]	AUC of dose-response viability curve [9]	AUC of dose-response viability curve [10]	AUC of dose-response viability curve [11]	AUC of dose-response viability curve [12]	AUC of dose-response viability curve [13]	AUC of dose-response viability curve [14]	AUC of dose-response viability curve [15]	AUC of dose-response viability curve [16]	minimum viability across doses [17]	minimum viability across doses [18]	minimum viability across doses [19]	minimum viability across doses [20]	minimum viability across doses [21]	minimum viability across doses [22]	minimum viability across doses [23]	minimum viability across doses [24]
0.559	< 0.003	CO[C@H]1C[C@H]2CC[C@@H](C)[C@@](O)(O2)C(=O)C(=O)N2CCCC[C@H]2C(=O)O[C@H]([C@H](C)C[C@@H]2CC[C@H](OP(C)(C)=O)[C@H](OC)C2)CC(=O)[C@H](C)/C=C(\C)[C@@H](O)[C@@H](OC)C(=O)[C@H](C)C[C@H](C)/C=C/C=C/C=C/1C (stereo in doubt) [Deforolimus (Ridaforolimus)]	> 10	0.00775	> 10	> 10	1.07	0.454	2.42	1.98	0.965	2.66	2.6	2.1	1.24	2.23	0.542	0.409	0.0878	0.607	0.636	0.456	0.271	0.443
0.386	< 0.003	CO[C@H]1CC2CC[C@@H](C)[C@@](O)(O2)C(=O)C(=O)N2CCCC[C@H]2C(=O)O[C@H]([C@H](C)C[C@@H]2CCC(OC(=O)C(C)(CO)CO)[C@H](OC)C2)CC(=O)[C@H](C)/C=C(\C)[C@@H](O)[C@@H](OC)C(=O)[C@H](C)C[C@H](C)/C=C/C=C/C=C/1C (stereo in doubt) [Temsirolimus (Torisel)]	3.9	0.0803	> 10	> 10	1.27	> 10	2.39	2.03	1.58	2.8	2.57	2.15	1.31	2.31	0.486	0.407	0.299	0.62	0.641	0.433	0.294	0.578
> 10	5.72	Cc1nc(NC(=O)N2CCC[C@H]2C(N)=O)sc1-c1csc(C(C)(C)C)n1 [A66]	> 10	> 10	> 10	> 10	> 10	> 10	2.93	3.42	3.47	3.33	3.34	3.36	2.57	2.94	0.631	0.803	0.757	0.823	0.787	0.805	0.418	0.659
> 10	< 0.003	CC1(C)CCC(CN2CCN(c3ccc(C(=O)NS(=O)(=O)c4ccc(NCC5CCOCC5)c([N+](=O)[O-])c4)c(Oc4cnc5[nH]ccc5c4)c3)CC2)=C(c2ccc(Cl)cc2)C1 [ABT-199 (GDC-0199 )]	> 10	> 10	> 10	> 10	> 10	> 10	3.06	3.16	3.98	3.47	3.73	3.28	2.19	3.19	0.617	0.847	1.02	0.88	0.915	0.846	0.442	0.821
2.28	0.181	CC1(C)CCC(c2ccc(Cl)cc2)=C(CN2CCN(c3ccc(C(=O)NS(=O)(=O)c4ccc(N[C@H](CCN5CCOCC5)CSc5ccccc5)c(S(=O)(=O)C(F)(F)F)c4)cc3)CC2)C1 [ABT-263 (Navitoclax)]	1.07	0.784	3.17	> 10	> 10	> 10	2.39	2.51	2.31	3.02	3	3.41	1.72	3.21	0.163	0.0597	0.00527	0.0787	0.622	0.603	0.00566	0.524
5.69	0.501	CN(C)CC[C@H](CSc1ccccc1)Nc1ccc(S(=O)(=O)NC(=O)c2ccc(N3CCN(Cc4ccccc4-c4ccc(Cl)cc4)CC3)cc2)cc1[N+](=O)[O-] [ABT-737]	4.57	3.08	9.18	5.36	> 10	> 10	2.43	2.88	4.03	3.47	3.25	3.76	1.66	3.25	0.253	0.206	0.00414	0.305	0.1	0.952	0.00151	0.625
0.415	8.51	CCN1CCN(Cc2ccc(-c3cc4c(N[C@H](C)c5ccccc5)ncnc4[nH]3)cc2)CC1 [AEE788 (NVP-AEE788)]	0.581	7.87	1.64	> 10	3.19	4.79	2.13	2.1	3.98	2.61	3.87	2.81	3.45	2.77	0.0159	0.0622	0.0104	0.0865	0.898	0.0495	0.108	0.276
7.43	5.99	N#C/C(=C\c1ccc(O)c(O)c1)C(=O)NCc1ccccc1 [AG-490]	> 10	> 10	> 10	> 10	> 10	> 10	3.21	3.09	4.19	3.27	3.87	3.57	2.89	3.37	0.615	0.301	0.843	0.823	1.04	0.948	0.369	0.788
